According to paper PMC7933930, “Development of a small molecule that corrects misfolding and increases secretion of Z α1‐antitrypsin” (EMBO Molecular Medicine, 2021):
Blank lines part the entries; values can stand above or below the molecule they belong to.

Key:
Z α1‐antitrypsin = Z α1‐antitrypsin (Homo sapiens, UniProt P01009, E366K); test: TR‐FRET immunoassay (2C1 antibody) of Z α1‐antitrypsin polymerisation, 37°C, 72 h; assay type: biochemical; parameters: purified from the plasma of Z α1‐antitrypsin homozygotes; from tissue; host or cells: human plasma of Z α1-antitrypsin homozygotes; details: 5 nM Z α1‐antitrypsin, 37°C, 72 h; read-out: pIC50, blocking polymerisation in the TR‐FRET immunoassay (converted)
Text: Z α1‐antitrypsin is a conformationally dynamic molecule (Lomas et al, 1992; Knaupp et al, 2010) that represents a non‐classical target for drug discovery. A cell‐free assay approach to hit finding was undertaken so as not to miss compounds that bind α1‐antitrypsin and block polymerisation but lack the molecular properties to cross cell membranes. This comprised the following: (i) an encoded library technology (ELT) screen (Goodnow et al, 2017) of a library with a nominal diversity of 2 × 10^12 unique components to identify binders to Z α1‐antitrypsin and (ii) a high‐throughput screen (HTS) of the GSK compound collection (~ 1.7 million compounds) for small molecules that could block polymerisation of Z α1‐antitrypsin. […] In the HTS assay, polymerisation of purified Z α1‐antitrypsin was induced by incubation at 37°C for 72 h in the presence of test compounds, with end‐point quantification of polymers performed using the polymer‐specific monoclonal antibody, 2C1 (Miranda et al, 2010) in a TR‐FRET‐based immunoassay. […]
An antibody‐based time‐resolved fluorescence resonance energy transfer (TR‐FRET) assay was developed to monitor the polymerisation of 5 nM Z α1‐antitrypsin following incubation with varying concentrations of compounds at 37°C for 72 h. This assay used the 2C1 monoclonal antibody (1.25 nM) that is specific to pathological polymers of α1‐antitrypsin (Miranda et al, 2010), a polyclonal antibody (1/320 dilution) that binds to all forms of α1‐antitrypsin (Abcam product 9373), an anti‐mouse IgG (1.5 nM) labelled with fluorescence donor Eu‐W1024 (Perkin Elmer product AD0076) and an anti‐rabbit IgG (14.3 nM labelled with acceptor [APC]). […] The TR‐FRET signal was read on an Envision plate reader (PerkinElmer), by excitation of Europium at 337 nm and detection of emission at 665 and 620 nm.

[1] = tested on: Z α1‐antitrypsin polymers; parameters: method as in Hidvegi et al, 2010; details: Z α1‐antitrypsin transgenic mice, 2 weeks of dosing; ref Hidvegi et al, 2010; cited from earlier work
[2] = molecular target: bovine α‐chymotrypsin (bovine)

Chain of wild‐type M α1‐antitrypsin, purified from plasma (P01009 25-418): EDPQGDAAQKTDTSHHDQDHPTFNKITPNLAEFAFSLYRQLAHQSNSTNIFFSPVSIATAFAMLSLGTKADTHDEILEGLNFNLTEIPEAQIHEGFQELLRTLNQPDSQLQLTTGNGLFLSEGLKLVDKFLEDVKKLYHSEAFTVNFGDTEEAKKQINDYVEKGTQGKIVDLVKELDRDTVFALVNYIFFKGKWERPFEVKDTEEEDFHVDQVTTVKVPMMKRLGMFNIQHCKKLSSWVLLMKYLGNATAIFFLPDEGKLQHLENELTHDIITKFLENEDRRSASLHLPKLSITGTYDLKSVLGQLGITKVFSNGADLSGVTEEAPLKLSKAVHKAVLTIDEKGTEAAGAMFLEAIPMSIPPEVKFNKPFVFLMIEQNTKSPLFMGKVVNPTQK
Chain of Z α1‐antitrypsin (P01009 25-418 E366K): as the sequence (P01009 25-418) above, with E342K counted along it

- IC50 (Z α1‐antitrypsin): 316 nM
Molecule: CCCC(NC(=O)c1ccc2cc[nH]c2c1)C(O)c1ccccc1 (stereo not drawn) [GSK425]

Molecule: NC(=O)N1c2ccccc2C=Cc2ccccc21 [carbamazepine]
- effect on liver polymer [1]: profound effects on liver polymer

- protease inhibitory activity (stoichiometry of inhibition, residual chymotrypsin activity) after pre‐incubation with 50 µM GSK716 [2]: > 98%
Molecule: wild‐type M α1‐antitrypsin, purified from plasma (from UniProt P01009 25-418) (natural protein)
